# Test results published in patent US20220142941A1, “COMBINATION THERAPEUTIC REGIMENS WITH 1,6-DIBROMO-1,6-DIDEOXY-DULCITOL” (Eleison Pharmaceuticals LLC, priority 2019, published 2022).
# Where two headings read alike, the source gives them in different places.
# Experiments:
# [1] = reported in the literature; cited from earlier work
# T98 glioma cell line = assay: Cell Titer-Glo viability, DBD concentration range; assay type: cell-based, human; conditions: 5 and 8 days
# Experimental: (§1) These lines were seeded in triplicate in a 96-wells plate, in a dilution of 500 cells/well. […] FIGS. 1 and 2 show the histogram results of the two used glioma cell lines, T98 and U373. Specifically, the histograms are normalized in percentages, where the non-treated cells have a 100% survival. […] However, a concentration range between 1 and 100 μM was selected and was next tested on twenty patient-derived serum-free cell cultures.
# U373 glioma cell line = assay: Cell Titer-Glo viability, DBD concentration range; assay type: cell-based, human; conditions: 5 and 8 days
# Experimental: as §1
# [2] = Kellner et al., Nature (1967); cited from earlier work
# [3] = system: panel of 20 patient derived cell cultures; assay: DBD combination treatment, overall result over the panel; assay type: cell-based, human
# Experimental: Crystalline DBD polymorph treatment was combined with chemotherapy, radiotherapy and targeted inhibitors to determine whether the crystalline DBD polymorph form could: enhance efficacy of the conventional therapies; enhance efficacy when combined with newer ‘targeted’ therapies; or would make (a subset of) cultures more sensitive to this treatment.
# Therefore, cultures were treated with: • a.
# GS249 = assay: DBD dose-response IC50, patient derived GSC culture; assay type: cell-based; conditions: Homo sapiens
# Experimental: (§2) To assess the effects of crystalline DBD polymorph on the growth of patient derived GSC's (Glioma serum-free Stem-cell like cultures), dose-response assays were performed on twenty cultures. […] A dose-dependent decrease in viability was found, and the IC50 values of could be calculated using linear regression analysis. Specifically, looking at Table 1, a high variation of different IC50 values is seen in this panel of patient derived GSC's. In addition, no correlation is seen between the MGMT promotor methylation status and the amount of the IC50 value.
# GS203 = assay: as above; assay type: cell-based; conditions: Homo sapiens
# Experimental: as §2
# GS281 = assay: as above; assay type: cell-based; conditions: Homo sapiens
# Experimental: as §2
# GS324core = assay: as above; assay type: cell-based; conditions: Homo sapiens
# Experimental: as §2
# GS289 = assay: as above; assay type: cell-based; conditions: Homo sapiens
# Experimental: as §2
# GS224 = assay: as above; assay type: cell-based; conditions: Homo sapiens
# Experimental: as §2
# GS245 = assay: as above; assay type: cell-based; conditions: Homo sapiens
# Experimental: as §2
# GS257 = assay: as above; assay type: cell-based; conditions: Homo sapiens
# Experimental: as §2
# GS186peri = assay: as above; assay type: cell-based; conditions: Homo sapiens
# Experimental: as §2
# GS102peri = assay: as above; assay type: cell-based; conditions: Homo sapiens
# Experimental: as §2
# GS186core = assay: as above; assay type: cell-based; conditions: Homo sapiens
# Experimental: as §2
# GS279core = assay: as above; assay type: cell-based; conditions: Homo sapiens, 120 h, read-out: IC50 5 d
# Experimental: as §2
# GS359 = assay: as above; assay type: cell-based; conditions: Homo sapiens
# Experimental: as §2
# GS365 = assay: as above; assay type: cell-based; conditions: Homo sapiens
# Experimental: as §2
# GS104peri = assay: as above; assay type: cell-based; conditions: Homo sapiens
# Experimental: as §2
# GS279peri = assay: as above; assay type: cell-based; conditions: Homo sapiens
# Experimental: as §2
# GS304 = assay: as above; assay type: cell-based; conditions: Homo sapiens
# Experimental: as §2
# GS323peri = assay: as above; assay type: cell-based; conditions: Homo sapiens, 120 h, passage 17, day 5, read-out: IC50 5 d
# Experimental: as §2
# GS261 = assay: as above; assay type: cell-based; conditions: Homo sapiens
# Experimental: as §2
# GS184 = assay: as above; assay type: cell-based; conditions: Homo sapiens
# Experimental: as §2
# [4] = 120 h, passage 14, day 5, read-out: IC50 5 d
# [5] = passage 14, day 8, read-out: IC50 8 d
smiles,measurement,setting,value
"O[C@H]([C@H](O)[C@@H](O)CBr)[C@H](O)CBr [DBD, 1,6-dibromo-1,6-dideoxy-dulcitol]",solubility,[1],poorly soluble
same,effect on cell viability (percentage of living cells vs non-treated),T98 glioma cell line; 0.1 μM and 0.3 μM DBD,not effective
same,effect on cell viability (percentage of living cells vs non-treated),T98 glioma cell line; 300 μM DBD,not viable
same,effect on cell viability (percentage of living cells vs non-treated),U373 glioma cell line; 0.1 μM and 0.3 μM DBD,not effective
same,effect on cell viability (percentage of living cells vs non-treated),U373 glioma cell line; 300 μM DBD,not viable
same,antitumor effect,[2],selective a vigorous antitumor effect
same,enhancement of the cytotoxic effect,[3]; combined with radiation treatment,30%
same,enhancement of the cytotoxic effect,[3]; combined with temozolomide,50%
same,IC50,"GS249; 120 h, GS249, passage 18, day 5, read-out: IC50 5 d",0.63 µM
same,IC50,"GS249; GS249, passage 18, day 8, read-out: IC50 8 d",0.24 µM
same,IC50,"GS203; 120 h, GS203, passage 20, day 5, read-out: IC50 5 d",28.7 µM
same,IC50,"GS203; GS203, passage 20, day 8, read-out: IC50 8 d",10.5 µM
same,IC50,"GS281; 120 h, GS281, passage 13, day 5, read-out: IC50 5 d",10.6 µM
same,IC50,"GS281; GS281, passage 13, day 8, read-out: IC50 8 d",5.55 µM
same,IC50,"GS324core; 120 h, passage 16, day 5, read-out: IC50 5 d",8.96 µM
same,IC50,"GS324core; passage 16, day 8, read-out: IC50 8 d",2.98 µM
same,IC50,"GS289; 120 h, GS289, passage 13, day 5, read-out: IC50 5 d",6.88 µM
same,IC50,"GS289; GS289, passage 13, day 8, read-out: IC50 8 d",3.22 µM
same,IC50,"GS224; 120 h, GS224, passage 17, day 5, read-out: IC50 5 d",33.3 µM
same,IC50,"GS224; GS224, passage 17, day 8, read-out: IC50 8 d",10.9 µM
same,IC50,"GS245; 120 h, GS245, passage 13, day 5, read-out: IC50 5 d",6.58 µM
same,IC50,"GS245; GS245, passage 13, day 8, read-out: IC50 8 d",3.35 µM
same,IC50,"GS257; 120 h, GS257, passage 13, day 5, read-out: IC50 5 d",11.9 µM
same,IC50,"GS257; GS257, passage 13, day 8, read-out: IC50 8 d",10.2 µM
same,IC50,GS186peri; [4],4.24 µM
same,IC50,GS186peri; [5],2.28 µM
same,IC50,"GS102peri; 120 h, passage 18, day 5, read-out: IC50 5 d",41.8 µM
same,IC50,"GS102peri; passage 18, day 8, read-out: IC50 8 d",11.9 µM
same,IC50,GS186core; [4],4.56 µM
same,IC50,GS186core; [5],1.94 µM
same,IC50,"GS279core; GS279core (1), passage 13, day 5",3.6 µM
same,IC50,"GS279core; GS279core (2), passage 16, day 5",7.64 µM
same,IC50,"GS359; 120 h, GS359, passage 14, day 5, read-out: IC50 5 d",11.8 µM
same,IC50,"GS359; GS359, passage 14, day 8, read-out: IC50 8 d",7.27 µM
same,IC50,"GS365; 120 h, GS365, passage 14, day 5, read-out: IC50 5 d",14.6 µM
same,IC50,"GS365; GS365, passage 14, day 8, read-out: IC50 8 d",5.69 µM
same,IC50,"GS104peri; 120 h, passage 22, day 5, read-out: IC50 5 d",3.48 µM
same,IC50,"GS104peri; passage 22, day 8, read-out: IC50 8 d",0.57 µM
same,IC50,"GS279peri; 120 h, passage 13, day 5, read-out: IC50 5 d",31.5 µM
same,IC50,"GS279peri; passage 13, day 8, read-out: IC50 8 d",8.33 µM
same,IC50,"GS304; 120 h, GS304, passage 14, day 5, read-out: IC50 5 d",106 µM
same,IC50,"GS304; GS304, passage 14, day 8, read-out: IC50 8 d",12.2 µM
same,IC50,GS323peri,4.75 µM
same,IC50,"GS261; 120 h, GS261, passage 11, day 5, read-out: IC50 5 d",3.44 µM
same,IC50,"GS261; GS261, passage 11, day 8, read-out: IC50 8 d",1.85 µM
same,IC50,"GS184; 120 h, GS184, passage 15, day 5, read-out: IC50 5 d",18.6 µM
same,IC50,"GS184; GS184, passage 15, day 8, read-out: IC50 8 d",1.96 µM
